Measured values reported in patent US4904764A, “4-diazo-3-methyl-2,5-cyclohexadine-1-one and pharmacetically acceptable salts thereof” (E. R. Squibb & Sons, Inc., priority 1985, dated 1990).
In brackets after ≈: the same amount, converted by molar mass.

Columns and labels:
[1] = system: Pseudomonas anaerobius SC11263; assay: Agar dilution assay, anaerobic bacteria (MIC); type: cell-based; conditions: DST agar, 10^5 CFU, 37° C., 18 hours, anaerobic chamber
[2] = Photolability (half-life); type: physicochemical; conditions: exposure to light; read-out: photolabile, half-life
[3] = system: Bacteroides fragilis SC11085; assay: Agar dilution assay, anaerobic bacteria (MIC); type: cell-based; conditions: B. fragilis SC11085, DST agar, 10^5 CFU, 37° C., 18 hours, anaerobic chamber
[4] = system: Bacteroides thetaiotamicron SC9005; assay: Agar dilution assay, anaerobic bacteria (MIC); type: cell-based; conditions: B. thetaiotamicron SC9005, DST agar, 10^5 CFU, 37° C., 18 hours, anaerobic chamber
[5] = system: gram positive and gram negative bacteria; assay: Antibacterial activity (general statement); type: cell-based
Escherichia coli SC8294 = assay: Agar dilution assay, aerobic test organisms (MIC); conditions: SC8294, 18 h
Shigella sonnei SC8449 = assay: Agar dilution assay, aerobic test organisms (MIC); type: cell-based; conditions: S. sonnei SC8449, K-10 agar, 10^4 CFU, 37° C., 18 hours, protected from light
[6] = system: Klebsiella pneumoniae SC9527; assay: Agar dilution assay, aerobic test organisms (MIC); conditions: SC9527, 18 h
[7] = system: Fusobacterium necrophorum SC10338; assay: Agar dilution assay, anaerobic bacteria (MIC); type: cell-based; conditions: F. necrophorum SC10338, DST agar, 10^5 CFU, 37° C., 18 hours, anaerobic chamber
Escherichia coli SC10896 = assay: Agar dilution assay, aerobic test organisms (MIC); conditions: SC10896, 18 h
[8] = system: Clostridium septicum SC1780; assay: Agar dilution assay, anaerobic bacteria (MIC); type: cell-based; conditions: SC1780, 18 h
Procedure: The susceptibility of a number of anaerobic bacteria was also determined by an agar dilution technique. Test organisms were prepared from 24-48 hour cultures grown in Chopped Meat Broth (Scott Laboratories, Fiskeville, R.I.) or from washings from chocolate agar slants. These slants were prepared by adding hemoglobin to Proteose #3 Agar (Difco) to a concentration of one percent. The growth was washed off the slants with Brain Heart Infusion Broth (BBL Microbiology Systems) and diluted to a density of 10^8 CFU/ml. The subject compound was dissolved in the appropriate diluent at a concentration of 1000 μg/ml.
The agar dilution assays yielded the following results: […]

[9] = system: Hemophilus vaginalis SC8568; assay: Agar dilution assay, anaerobic bacteria (MIC); type: cell-based; conditions: Gardnerella vaginalis; H. vaginalis SC8568; DST agar, 10^5 CFU, 37° C., 18 hours, anaerobic chamber
[10] = system: Escherichia colid SC10909; assay: Agar dilution assay, aerobic test organisms (MIC); conditions: SC10909, 18 h
[11] = system: Enterobacter cloacae SC8236; assay: Agar dilution assay, aerobic test organisms (MIC); conditions: SC8236, 18 h
[12] = system: Streptococcus faecalis SC9011; assay: Agar dilution assay, aerobic test organisms (MIC); conditions: Enterococcus faecalis, SC9011, 18 h
Proteus mirabilis SC3855 = assay: Agar dilution assay, aerobic test organisms (MIC); conditions: SC3855, 18 h
[13] = system: Bacteroides thetaiotamicron SC10278; assay: Agar dilution assay, anaerobic bacteria (MIC); type: cell-based; conditions: B. thetaiotamicron SC10278, DST agar, 10^5 CFU, 37° C., 18 hours, anaerobic chamber
[14] = system: Staphylococcus aureus SC2399; assay: Agar dilution assay, aerobic test organisms (MIC); conditions: SC2399, 18 h
[15] = system: Salmonella typhosa SC1195; assay: Agar dilution assay, aerobic test organisms (MIC); conditions: Salmonella enterica, 18 h
[16] = system: Pseudomonas aeruginosa SC8333; assay: Agar dilution assay, aerobic test organisms (MIC); conditions: SC8333, 18 h
[17] = system: Staphylococcus aureus SC1276; assay: Agar dilution assay, aerobic test organisms (MIC); conditions: SC1276, 18 h
[18] = system: Bacteroides fragilis SC10277; assay: Agar dilution assay, anaerobic bacteria (MIC); type: cell-based; conditions: B. fragilis SC10277, DST agar, 10^5 CFU, 37° C., 18 hours, anaerobic chamber
[19] = system: Bacteroides fragilis SC9844; assay: Agar dilution assay, anaerobic bacteria (MIC); type: cell-based; conditions: B. fragilis SC9844, DST agar, 10^5 CFU, 37° C., 18 hours, anaerobic chamber
[20] = system: Hemophilus vaginalis SC9640; assay: Agar dilution assay, anaerobic bacteria (MIC); type: cell-based; conditions: Gardnerella vaginalis; H. vaginalis SC9640; DST agar, 10^5 CFU, 37° C., 18 hours, anaerobic chamber
[21] = system: Staphylococcus aureus SC2400; assay: Agar dilution assay, aerobic test organisms (MIC); conditions: SC2400, 18 h
[22] = system: Clostridium difficile SC11251; assay: Agar dilution assay, anaerobic bacteria (MIC); type: cell-based; conditions: Clostridioides difficile; C. difficile SC11251; DST agar, 10^5 CFU, 37° C., 18 hours, anaerobic chamber
[23] = system: Clostridium perfringens SC11256; assay: microbe, parasite or virus in culture; type: cell-based; conditions: SC11256, 18 h
[24] = system: Klebsiella aerogenes SC10440; assay: Agar dilution assay, aerobic test organisms (MIC); conditions: SC10440, 18 h
[25] = system: Streptococcus agalactiae SC9287; assay: Agar dilution assay, aerobic test organisms (MIC); conditions: SC9287, 18 h

For `COC1=CC(=O)C=CC1=[N+]=[N-]`, the MIC [1] was < 0.05 µg/mL, the half-life [2] was < 2 h and the MIC [3] was 0.2 µg/mL (≈ 1.33 µM). The MIC [4] was 0.4 µg/mL (≈ 2.66 µM), the activity against bacteria [5] was “activity against a variety of gram positive and gram negative bacteria, particularly against anaerobic bacteria” and the MIC (Escherichia coli SC8294) was 3.1 µg/mL (≈ 20.6 µM). The MIC (Shigella sonnei SC8449) was 1.6 µg/mL (≈ 10.7 µM), the MIC [6] was 25 µg/mL (≈ 167 µM) and the MIC [7] was < 0.05 µg/mL. The MIC (Escherichia coli SC10896) was 6.3 µg/mL (≈ 42 µM), the MIC [8] was < 0.05 µg/mL and the MIC [9] was 0.2 µg/mL (≈ 1.33 µM). It also gave an MIC [10] of 3.1 µg/mL (≈ 20.6 µM), an MIC [11] of 50 µg/mL (≈ 333 µM) and an MIC [12] of 6.3 µg/mL (≈ 42 µM). The MIC (Proteus mirabilis SC3855) was 3.1 µg/mL (≈ 20.6 µM), the MIC [13] was 0.4 µg/mL (≈ 2.66 µM) and the MIC [14] was 12.5 µg/mL (≈ 83.3 µM). For the same molecule, the MIC [15] was 1.6 µg/mL (≈ 10.7 µM), the MIC [16] was 25 µg/mL (≈ 167 µM) and the MIC [17] was 2.5 µg/mL (≈ 16.7 µM). It also gave an MIC [18] of 0.4 µg/mL (≈ 2.66 µM), an MIC [19] of 0.4 µg/mL (≈ 2.66 µM) and an MIC [20] of 0.4 µg/mL (≈ 2.66 µM). It also gave an MIC [21] of 12.5 µg/mL (≈ 83.3 µM), an MIC [22] of 0.4 µg/mL (≈ 2.66 µM) and an MIC [23] of 0.2 µg/mL (≈ 1.33 µM). It also gave an MIC [24] of 12.5 µg/mL (≈ 83.3 µM) and an MIC [25] of 6.3 µg/mL (≈ 42 µM).
